Bridge positions count the residues as written; N and C are the ends. Square brackets hold non-standard residues; d marks the D form. Peptide text beside a SMILES is read from it. Phe(4-NO2) = N[C@@H](Cc1ccc([N+](=O)[O-])cc1)C(=O)O; Phe(4-Br) = N[C@@H](Cc1ccc(Br)cc1)C(=O)O; Phe(4-Cl) = N[C@@H](Cc1ccc(Cl)cc1)C(=O)O; Phe(4-F) = N[C@@H](Cc1ccc(F)cc1)C(=O)O; Phe(4-I) = N[C@@H](Cc1ccc(I)cc1)C(=O)O; dPen = CC(C)(S)[C@@H](N)C(=O)O; dAbu = CC[C@@H](N)C(=O)O; Ac5c = NC1(C(=O)O)CCCC1; Abu = CC[C@H](N)C(=O)O
How the values were obtained:
[1] = target: guinea pig ileum (GPI), primarily mu-type opiate receptors (Cavia porcellus, UniProt P97266); assay: guinea pig ileum (GPI) assay: inhibition of electrically induced muscle contractions; assay type: cell-based; parameters: inh in GPI: dose or concentration left out as unconfirmed; settings: for IC50: guinea pig ileum, electrically stimulated contractions, read-out: IC50 (nM) ± S.E.E. GPI
Experimental: The guinea pig ileum longitudinal muscle-myenteric plexus preparation was prepared following the method of Kosterlitz, et al. Brit. J. Pharmacol., 39, 398-413 (1970). Agonists were added to the tissue bath and remained in contact with the tissue for a maximum of three minutes.

[2] = target: T1, mouse vas deferens (MVD), primarily delta-type opiate receptors (Mus musculus, UniProt P32300); assay: mouse vas deferens (MVD) assay: inhibition of electrically induced muscle contractions; assay type: cell-based; settings: for IC50: mouse vas deferens, electrically stimulated contractions, read-out: IC50 (nM) ± S.E.E. MVD
T1 construct: from tissue; host or cells: mouse vas deferens
Experimental: The MVD preparation contains primarily delta-type opiate receptors, with some kappa and mu receptors.
The mouse vas deferens was prepared following the method of Hughes, et al. cites Brit. J. Pharmacol., 53, 371-381 (1975). One pair of vasa deferentia was used in each experiment.

mu-type opioid receptors = target: T2, mu-type opioid receptors (Rattus norvegicus, UniProt P33535); assay: displacement of [3H]CTOP in rat brain homogenate; assay type: binding; settings: 25° C., read-out: IC50 (nM) ± S.E.E. [3H] CTOP
T2 construct: Whole brains with cerebellum removed were homogenized in 100 volumes of Tris-HCl buffer; from tissue; host or cells: rat brain (without cerebellum), washed homogenate
Experimental: (§1) The binding potencies of each compound for mu and delta receptors in rat brain extracts was determined by competition assays against radiolabelled compounds known to bind opioid receptors. […] The ability of a tested compound to displace tritiated ligands from their respective receptor molecules is a measure of the compound's binding potency for the receptor of the displaced ligand.
(§2) Brains from male Sprague-Dawley rats were rapidly removed following sacrifice. Whole brains with cerebellum removed were homogenized in 100 volumes of Tris-HCl buffer (pH 7.4 at 25°). Tissue homogenates were washed twice in the same buffer by centrifugation at 48,000 g for 10 min. Pellets were resuspended in the same buffer.
(§3) Filter-bound radioactivity was quantitated by liquid scintillation spectrophotometry with an efficiency of 46%. Radio-ligand displaced by 1 μM natrexone hydrochloride was defined as specific tissue binding.

[3] = target: T3, delta-type opioid receptors (Rattus norvegicus, UniProt P33533); assay: displacement of [3H][p-Cl-Phe4]DPDPE in rat brain homogenate; assay type: binding; settings: for IC50: rat brain homogenate, 1 nM radioligand, 25° C., 40 min, read-out: IC50 (nM) ± S.E.E. [3H] p-Cl-DPDPE
T3 construct: Whole brains with cerebellum removed were homogenized in 100 volumes of Tris-HCl buffer; from tissue; host or cells: rat brain (without cerebellum), washed homogenate
Experimental: as §1, §2
Total incubation volume was 2 ml. After 40 min., the mixture was rapidly filtered through Whatman GF/B glass fiber filters and washed 3 times with 5 ml of ice-cold buffer.
as §3

T3 sequence (P33533 whole entry): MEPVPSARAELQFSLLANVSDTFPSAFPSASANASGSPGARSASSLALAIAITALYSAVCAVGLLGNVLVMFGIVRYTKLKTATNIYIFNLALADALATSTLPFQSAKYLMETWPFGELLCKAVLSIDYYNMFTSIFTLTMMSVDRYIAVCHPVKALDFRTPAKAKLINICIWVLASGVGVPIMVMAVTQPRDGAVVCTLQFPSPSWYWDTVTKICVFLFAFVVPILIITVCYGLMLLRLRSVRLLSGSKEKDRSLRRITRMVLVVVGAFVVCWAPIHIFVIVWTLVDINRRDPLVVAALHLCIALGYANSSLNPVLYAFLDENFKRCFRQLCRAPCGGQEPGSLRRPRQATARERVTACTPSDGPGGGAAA
T1 sequence (P32300 whole entry): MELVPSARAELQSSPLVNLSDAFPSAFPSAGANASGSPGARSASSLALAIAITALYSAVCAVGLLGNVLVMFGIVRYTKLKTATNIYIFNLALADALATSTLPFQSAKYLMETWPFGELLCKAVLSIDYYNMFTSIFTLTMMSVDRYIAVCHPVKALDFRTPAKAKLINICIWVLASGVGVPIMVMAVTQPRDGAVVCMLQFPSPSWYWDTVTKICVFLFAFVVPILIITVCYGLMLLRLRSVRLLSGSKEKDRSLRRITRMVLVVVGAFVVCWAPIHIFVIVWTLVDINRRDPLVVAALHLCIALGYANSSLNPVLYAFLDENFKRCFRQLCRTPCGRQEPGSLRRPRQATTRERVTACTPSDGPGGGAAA
Chain of guinea pig ileum (GPI), primarily mu-type opiate receptors (P97266 whole entry, looked up): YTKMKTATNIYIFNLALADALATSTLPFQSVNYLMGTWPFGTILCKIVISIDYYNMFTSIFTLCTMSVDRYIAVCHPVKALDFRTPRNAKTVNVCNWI
T2 sequence (P33535 whole entry): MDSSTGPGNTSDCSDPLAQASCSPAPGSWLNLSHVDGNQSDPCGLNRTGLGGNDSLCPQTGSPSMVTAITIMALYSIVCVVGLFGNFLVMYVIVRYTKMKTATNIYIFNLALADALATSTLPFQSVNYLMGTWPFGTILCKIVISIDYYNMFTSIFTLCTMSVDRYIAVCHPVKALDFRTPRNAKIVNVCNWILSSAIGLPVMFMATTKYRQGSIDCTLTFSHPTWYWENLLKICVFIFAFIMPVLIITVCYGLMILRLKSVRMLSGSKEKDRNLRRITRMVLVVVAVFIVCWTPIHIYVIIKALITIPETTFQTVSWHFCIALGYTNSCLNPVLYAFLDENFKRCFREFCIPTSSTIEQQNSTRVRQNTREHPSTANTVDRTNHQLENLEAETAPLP

Row | Structure (SMILES) | IC50 [1] | IC50 [2] | IC50 (mu-type opioid receptors) | IC50 [3] | inh in GPI [1] | RATIO (μ/δ), Table 1 ([2]; GPI IC50 / MVD IC50) | RATIO (μ/δ), Table 2 ([3]; [3H]CTOP IC50 / [3H]p-Cl-DPDPE IC50, rat brain)
1 | C[C@@H]1NC(=O)[C@H](NC(=O)[C@@H](N)Cc2ccc(O)cc2)C(C)(C)SSC(C)(C)[C@H](C(=O)O)NC(=O)[C@H](Cc2ccc([N+](=O)[O-])cc2)NC1=O [[p-NO2 --Phe^4 ]DPADPE] (H-Y[dPen]A[Phe(4-NO2)][dPen]-OH; disulfide 2-5) | 13500 ± 1210 nM | 3.74 ± 0.356 nM | 712 ± 3 nM | 3.5 ± 0.25 nM | – | – | –
2 | CC1(C)SSC(C)(C)[C@@H](NC(=O)[C@@H](N)Cc2ccc(O)cc2)C(=O)N[C@H](CO)C(=O)N[C@@H](Cc2ccccc2)C(=O)N[C@H]1C(=O)O [[D--Ser^3]DPDPE] (H-Y[dPen][dS]F[dPen]-OH; disulfide 2-5) | – | 1280 ± 245 nM | > 50000 nM | 764 ± 106 nM | 3 % inh | – | –
3 | CC[C@H]1NC(=O)[C@H](NC(=O)[C@@H](N)Cc2ccc(O)cc2)C(C)(C)SSC(C)(C)[C@H](C(=O)O)NC(=O)[C@H](Cc2ccccc2)NC1=O [[D--Abu^3]DPDPE] (H-Y[dPen][dAbu]F[dPen]-OH; disulfide 2-5) | 29900 ± 2670 nM | 1950 ± 204 nM | > 50000 nM | 3380 ± 1070 nM | – | – | –
4 | C[C@@H]1NC(=O)[C@H](NC(=O)[C@@H](N)Cc2ccc(O)cc2)C(C)(C)SSC(C)(C)[C@H](C(=O)O)NC(=O)[C@H](Cc2ccc(F)cc2)NC1=O [[p-F--Phe^4 ]DPADPE] (H-Y[dPen]A[Phe(4-F)][dPen]-OH; disulfide 2-5) | 4600 ± 1010 nM | 3.61 ± 0.367 nM | 1460 ± 253 nM | 0.55 ± 0.14 nM | – | – | –
5 | CC[C@@H]1NC(=O)[C@H](NC(=O)[C@@H](N)Cc2ccc(O)cc2)C(C)(C)SSC(C)(C)[C@H](C(=O)O)NC(=O)[C@H](Cc2ccccc2)NC1=O [[L--Abu^3]DPDPE] (H-Y[dPen][Abu]F[dPen]-OH; disulfide 2-5) | 4870 ± 345 nM | 84.9 ± 12.5 nM | 12000 ± 938 nM | 66.3 ± 30.4 nM | – | – | –
6 | C[C@@H]1NC(=O)[C@H](NC(=O)[C@@H](N)Cc2ccc(O)cc2)C(C)(C)SSC(C)(C)[C@H](C(=O)O)NC(=O)[C@H](Cc2ccc(Br)cc2)NC1=O [[p-Br--Phe^4 ]DPADPE] (H-Y[dPen]A[Phe(4-Br)][dPen]-OH; disulfide 2-5) | 40800 ± 2950 nM | 2.95 ± 0.686 nM | 2710 ± 453 nM | 5.3 ± 0.86 nM | – | – | –
7 | CC1(C)SSC(C)(C)[C@@H](NC(=O)[C@@H](N)Cc2ccc(O)cc2)C(=O)N[C@@H](CO)C(=O)N[C@@H](Cc2ccccc2)C(=O)N[C@H]1C(=O)O [[L--Ser^3]DPDPE] (H-Y[dPen]SF[dPen]-OH; disulfide 2-5) | 39400 ± 7160 nM | 252 ± 32.5 nM | > 22500 nM | 42 ± 3 nM | – | – | –
8 | C[C@@H]1NC(=O)[C@H](NC(=O)[C@@H](N)Cc2ccc(O)cc2)C(C)(C)SSC(C)(C)[C@H](C(=O)O)NC(=O)[C@H](Cc2ccc(I)cc2)NC1=O [[p-I--Phe^4 ]DPADPE] (H-Y[dPen]A[Phe(4-I)][dPen]-OH; disulfide 2-5) | 30800 ± 1550 nM | 11 ± 1.23 nM | 3670 ± 396 nM | 12.5 ± 0.5 nM | – | – | –
9 | C[C@@H]1NC(=O)[C@H](NC(=O)[C@@H](N)Cc2ccc(O)cc2)C(C)(C)SSC(C)(C)[C@H](C(=O)O)NC(=O)[C@H](Cc2ccccc2)NC1=O [[L--Ala^3 ]DPDPE (DPADPE), L-Tyrosyl-D-penicillaminyl-L--alanyl-L-phenylalanyl-D-penicillaminyl cyclic (2-5) disulfide] (H-Y[dPen]AF[dPen]-OH; disulfide 2-5) | 121000 ± 81400 nM | 11.8 ± 1.62 nM | 11000 ± 13 nM | 18.4 ± 0.43 nM | – | 10,315 | 598
10 | CC1(C)SSC(C)(C)[C@@H](NC(=O)[C@@H](N)Cc2ccc(O)cc2)C(=O)NC2(CCCC2)C(=O)N[C@@H](Cc2ccccc2)C(=O)N[C@H]1C(=O)O [[AC5 C^3]DPDPE] (H-Y[dPen][Ac5c]F[dPen]-OH; disulfide 2-5) | 857 ± 31.7 nM | 370 ± 162 nM | 1760 ± 45 nM | 312 ± 39 nM | – | – | –
11 | C[C@@H]1NC(=O)[C@H](NC(=O)[C@@H](N)Cc2ccc(O)cc2)C(C)(C)SSC(C)(C)[C@H](C(=O)O)NC(=O)[C@H](Cc2ccc(Cl)cc2)NC1=O [[p-Cl--Phe^4 ]DPADPE] (H-Y[dPen]A[Phe(4-Cl)][dPen]-OH; disulfide 2-5) | 25500 ± 10300 nM | 1.94 ± 0.295 nM | 1120 ± 260 nM | 3.7 ± 0.9 nM | – | – | –
12 | C[C@H]1NC(=O)[C@H](NC(=O)[C@@H](N)Cc2ccc(O)cc2)C(C)(C)SSC(C)(C)[C@H](C(=O)O)NC(=O)[C@H](Cc2ccccc2)NC1=O [[D--Ala^3]DPDPE] (H-Y[dPen][dA]F[dPen]-OH; disulfide 2-5) | 33300 ± 817 nM | 572 ± 131 nM | > 35000 nM | 535 ± 58 nM | – | – | –

Reference: US5326751A, “Enkephalin analogs” (Arizona Board of Regents on behalf of the University of …, priority 1992, dated 1994)
